Results from patent US20190300573A1, “HUMAN MYOSIN PEPTIDES” (APITOPE INTERNATIONAL NV, priority 2016, published 2019).

Columns and labels:
[1] = system: α-myosin sensitized splenic cells; experiment: Testing the antigenicity of T cell epitopes (stimulation index, 3H-thymidine incorporation); type: cell-based, DR4 mice; conditions: for stimulation index: 3H-thymidine incorporation, peptides 30, 3 and 0.3 μg/ml, screening repeated three times, FIG. 8; for stimulation at the lowest concentration: 0.3 μg/ml
Protocol: The antigenicity of predicted peptides was assessed T cell proliferation against human cardiac myosin was measured by comparison of their stimulation index determined by 3H-thymidine incorporation assay (in brief: cells were pulsed with ^3H-Thymidine for 18 hours at the same conditions by adding 25 μl of diluted ^3H-Tymidine solution in RPMI to each well (final concentration 0.5 μCi/well). Finally, the cells were kept at −20 C.° at least overnight until ready to harvest. After thawing the plates, the cells were harvested onto glass fibre filters (Cox Scientific) using a Combo Cell Harvester (Skatron). Then the filters were soaked in Betaplate Scint liquid scintillation cocktail (Perkin Elmer) and sealed into sample bags (Perkin Elmer). Finally, the sealed bags containing the filters were placed into cassettes and the amount of scintillation was read using 1450 Microbeta Liquid Scintillation Counter (Perkin Elmer) in order to determine the level of ^3H-tymidine incorporation.). The α-myosin sensitized splenic cells were challenged with each peptide (GenScript (USA), peptide concentrations were 30, 3 and 0.3 μg/ml) or whole myosin (30 μg/ml).

[2] = system: cardiac myosin responsive T cell proliferation; experiment: Anti-myosin T cell proliferation of splenocytes from EAM DR4 mice; type: in vivo; conditions: EAM induction, FIG. 3
Protocol: (§1) Appropriate amount of myosin extract was diluted to the desired volume with PBS, then mixed with equal volume of complete Freund's adjuvant (CFA; Difco) containing 8 mg/ml of heat-killed Mycobacterium Tuberculosis (hkMTB; Difco). The mixture was sonicated for 20 min, then mixed well by a 1 ml syringe until the emulsion became very thick and viscous. 100 μl of the emulsion was applied subcutaneously from tail base at a dose of 100 μg myosin/mouse. On day 0 and 2, 200 ng Pertussis toxin (Sigma Aldrich) in 0.5 ml of PBS was intraperitoneally injected to each mouse as a second adjuvant. In the first trial, the myosin and Pertussis toxin injections were repeated after a week. […] The development of EAM was assessed by echocardiographic and histopathological measurements after 3 weeks from myosin injection. […]
The splenocytes obtained from myosin immunised mice (as described herein) were cultured in 96 well plates in X-Vivo 15 media (Lonza) at a concentration of 5×10^5 cells/well. […] Finally, the cells were kept at −20 C.° at least overnight until ready to harvest. […]
(§2) 2 different combinations of peptides were used for the therapy. […] Mice were terminated 3 weeks after the myosin injection and disease development and adaptive immune responses against cardiac myosin were assessed.

[3] = system: circulating anti-myosin antibodies; experiment: ELISA of circulating anti-myosin antibody levels in EAM DR4 mice; type: in vivo; conditions: EAM induction, n=5
Protocol: Appropriate amount of myosin extract was diluted to the desired volume with PBS, then mixed with equal volume of complete Freund's adjuvant (CFA; Difco) containing 8 mg/ml of heat-killed Mycobacterium Tuberculosis (hkMTB; Difco). The mixture was sonicated for 20 min, then mixed well by a 1 ml syringe until the emulsion became very thick and viscous. 100 μl of the emulsion was applied subcutaneously from tail base at a dose of 100 μg myosin/mouse. On day 0 and 2, 200 ng Pertussis toxin (Sigma Aldrich) in 0.5 ml of PBS was intraperitoneally injected to each mouse as a second adjuvant. In the first trial, the myosin and Pertussis toxin injections were repeated after a week. However, this second set of injections was excluded in later experiments to avoid induction of a too severe disease that might obscure any benefit of the peptide therapy. Control groups received PBS in hkMTB-boosted CFA (but without human cardiac myosin) as well as Pertussis toxin. The development of EAM was assessed by echocardiographic and histopathological measurements after 3 weeks from myosin injection. […]
After incubation with the alkaline phosphatase-conjugated antibodies, once again the plates were washed four times with PBST. […] Once the colour developed, the reaction was stopped by adding 50 μL of 2M NaOH (Sigma, UK) and the absorbance was measured using LT-5000MS ELISA Reader (Labtech) at a wavelength of 405 nm. […]

EAM induced DR4 mice [4] = experiment: Echocardiographic analysis of left ventricle function in EAM DR4 mice; type: in vivo; conditions: n=5
Protocol: (§3) Appropriate amount of myosin extract was diluted to the desired volume with PBS, then mixed with equal volume of complete Freund's adjuvant (CFA; Difco) containing 8 mg/ml of heat-killed Mycobacterium Tuberculosis (hkMTB; Difco). The mixture was sonicated for 20 min, then mixed well by a 1 ml syringe until the emulsion became very thick and viscous. 100 μl of the emulsion was applied subcutaneously from tail base at a dose of 100 μg myosin/mouse. On day 0 and 2, 200 ng Pertussis toxin (Sigma Aldrich) in 0.5 ml of PBS was intraperitoneally injected to each mouse as a second adjuvant. In the first trial, the myosin and Pertussis toxin injections were repeated after a week. However, this second set of injections was excluded in later experiments to avoid induction of a too severe disease that might obscure any benefit of the peptide therapy. Control groups received PBS in hkMTB-boosted CFA (but without human cardiac myosin) as well as Pertussis toxin. The development of EAM was assessed by echocardiographic and histopathological measurements after 3 weeks from myosin injection. Spleens were collected to measure cardiac myosin responsive T cell proliferation. Bloods were collected to measure circulating anti-myosin antibody levels.
At the end of the 3 week experiment, the mice were anesthetised by intraperitoneal injection of Tribromoethanol (Avertin; SigmaAldrich) at a dose of 250 mg/kg. The left ventricle functions and diameters were analysed using Vevo 770 high-frequency, high-resolution echocardiography system (Visual Sonics) just before terminating the mice. The anesthetised mice were laid supine and butted to a heated platform by surgical tape stripes. Chest hair were removed by applying hair removal cream and Aquasonic Clear ultrasound transmission gel (Parker Laboratories) was applied to the hairless chest. […]
as §2

EAM induced DR4 mice [5] = experiment: Histopathological analysis of myocarditis (H&E inflammatory cell infiltrate); type: in vivo; conditions: EAM induction, p=0.0079, Fisher's exact test
Protocol: as §3
The heart was dissected and fixed for 24 hours in 10% (v/v) formalin in PBS for histological analyses. […]

DR4 mice = type: in vivo; conditions: first trial, myosin and Pertussis toxin injections repeated after a week; after 3 weeks
Protocol: as §1
In our first trial, it was planned to follow disease progression using echocardiography at 3 and 6 weeks. However, sudden death occurred in 3 out of 5 mice in the α-myosin treated group after 3 weeks, whereas the animals in the control group were all healthy and no signs of myocarditis were detected in their hearts by echocardiographic measurements (data not shown). […]
Body weights of the mice were measured before the induction of EAM and at termination. […]

## PHIFSISDNAYQYML (T cell epitope peptide) [PL]
[1]
  stimulation index: stronger stimulation than the rest of them
[1]; second screening assay
  stimulation at the lowest concentration: provided stimulation even at the lowest concentration

## VNPYKWLPVYNAEVV (T cell epitope peptide)
[1]
  stimulation index: stronger stimulation than the rest of them

## Whole myosin: myosin extracted from human heart left ventricular wall; immunogen for EAM induction and stimulus in proliferation assays
[1]; second screening assay
  stimulation: 2 fold
[2]; 100 μg myosin in CFA + Pertussis toxin, vs control group with CFA and Pertussis toxin only
  increase in T cell proliferation against cardiac myosin: 5-6 fold
[2]; myosin 0.2, 2.0, 20 μg/ml in culture, n=5
  anti-myosin T cell proliferation: increased
[3]; pmax=0.0008, FIG. 4A
  circulating anti-myosin IgG1 levels: increased significantly
[3]; pmax=0.02, FIG. 4B
  circulating anti-myosin IgG2c levels: significantly increased
EAM induced DR4 mice [4]; EAM induction vs control with only CFA and Pertussis toxin, p=0.003
  percentage of ejection fraction: significant decrease
EAM induced DR4 mice [4]; EAM induction vs control with only CFA and Pertussis toxin, p=0.006
  fractional shortening: significant decrease
EAM induced DR4 mice [4]; EAM induction, p=0.039, FIG. 6B
  left ventricle systolic dimension: significant increase
EAM induced DR4 mice [5]
  mice with inflammation and tissue damage in the heart: 5 out of 5
DR4 mice
  sudden death: 3 out of 5

## YHIFYQILSNKKPEL (T cell epitope peptide) [YL]
[1]
  stimulation index: consistently the strongest stimulation amongst the peptides
[1]; second screening assay
  stimulation at the lowest concentration: provided stimulation even at the lowest concentration
